# Experimental data reported in US10550111B2, “Pyrimidine urea compound containing isoxazolines and use thereof” (SHENYANG SINOCHEM AGROCHEMICALS R&D CO., LTD, priority 2014, dated 2020).
# Legend:
# Assay type in all cases: in vivo
# [1] = system: Echinochloa crus-galli (L.) Beauv.; test: Bioassay of herbicidal activity in greenhouse (further screening)
# Method: (§1) Determination of herbicidal activity of compounds of the present invention against weeds was carried out by the following procedures:
# (§2) Seeds of monocotyledonous and dicotyledonous weeds were sown in nutrition soil in paper pot (7 cm diameter), covered with soil in 1 cm and grown in the greenhouse under good growth conditions (temperature, atmospheric humidity, water supply). The compounds of the present invention as emulsifiable concentrate, were applied in pre-emergence and post-emergence treatment by track sprayer (Engineer Research Ltd., pressure 1.95 kg/cm^2, volume 500 L/hm^2, track speed 1.48 km/h). Pre-emergence treatment was conducted after seeding 24 hours and post-emergence treatment was done when the respective weeds reached predetermined leaf stage (grass weed 2- to 3-leaf stage, broad-leaf weed 2- to 4-leaf stage), the state of growth of the respective weeds were visually observed to determine the growth inhibition rate (%) in accordance with the following evaluation standard.
# (§3) Growth inhibition rate (%): 0=no discernible action: 100=all weeds dead or not emerged.
# [2] = system: Setaria glauca (L.) Beauv.; test: as above
# Method: as §1, §2, §3
# [3] = system: Abutilon theophrasti Medic.; test: as above
# Method: as §1, §2, §3
# Zinnia elegans Jacq. = test: as above
# Method: as §1, §2, §3
# [4] = system: broad-leaf weeds and grass weeds; test: General screening of herbicidal activity in greenhouse; conditions: 1000 g a.i./hm^2;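 note: 0 means no visible effect and 100 means all weeds dead or not emerged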
# Method: as §1, §2, §3
smiles,measurement,setting,value
Cn1c(C(F)(F)F)cc(=O)n(-c2cc(C3=NOC(C)(COS(C)(=O)=O)C3)c(Cl)cc2F)c1=O (stereo not drawn) [Compound 88],"Growth inhibition rate, Post-emergence treatment, Echinochloa crus-galli (L.) Beauv.",[1]; dose 7.5 g a.i./hm^2,15%
same,"Growth inhibition rate, Post-emergence treatment, Echinochloa crus-galli (L.) Beauv.",[1]; dose 15 g a.i./hm^2,20%
same,"Growth inhibition rate, Post-emergence treatment, Echinochloa crus-galli (L.) Beauv.",[1]; dose 37.5 g a.i./hm^2,25%
same,"Growth inhibition rate, Post-emergence treatment, Echinochloa crus-galli (L.) Beauv.",[1]; dose 150 g a.i./hm^2,60%
same,"Growth inhibition rate, Post-emergence treatment, Echinochloa crus-galli (L.) Beauv.",[1]; dose 600 g a.i./hm^2,95%
same,"Growth inhibition rate, Pre-emergence treatment, Echinochloa crus-galli (L.) Beauv.",[1]; dose 7.5 g a.i./hm^2,5%
same,"Growth inhibition rate, Pre-emergence treatment, Echinochloa crus-galli (L.) Beauv.",[1]; dose 15 g a.i./hm^2,10%
same,"Growth inhibition rate, Pre-emergence treatment, Echinochloa crus-galli (L.) Beauv.",[1]; dose 37.5 g a.i./hm^2,15%
same,"Growth inhibition rate, Pre-emergence treatment, Echinochloa crus-galli (L.) Beauv.",[1]; dose 150 g a.i./hm^2,80%
same,"Growth inhibition rate, Pre-emergence treatment, Echinochloa crus-galli (L.) Beauv.",[1]; dose 600 g a.i./hm^2,100%
same,"Growth inhibition rate, Post-emergence treatment, Setaria glauca (L.) Beauv.",[2]; dose 7.5 g a.i./hm^2,25%
same,"Growth inhibition rate, Post-emergence treatment, Setaria glauca (L.) Beauv.",[2]; dose 15 g a.i./hm^2,30%
same,"Growth inhibition rate, Post-emergence treatment, Setaria glauca (L.) Beauv.",[2]; dose 37.5 g a.i./hm^2,45%
same,"Growth inhibition rate, Post-emergence treatment, Setaria glauca (L.) Beauv.",[2]; dose 150 g a.i./hm^2,70%
same,"Growth inhibition rate, Post-emergence treatment, Setaria glauca (L.) Beauv.",[2]; dose 600 g a.i./hm^2,98%
same,"Growth inhibition rate, Pre-emergence treatment, Setaria glauca (L.) Beauv.",[2]; dose 7.5 g a.i./hm^2,65%
same,"Growth inhibition rate, Pre-emergence treatment, Setaria glauca (L.) Beauv.",[2]; dose 15 g a.i./hm^2,80%
same,"Growth inhibition rate, Pre-emergence treatment, Setaria glauca (L.) Beauv.",[2]; dose 37.5 g a.i./hm^2,30%
same,"Growth inhibition rate, Pre-emergence treatment, Setaria glauca (L.) Beauv.",[2]; dose 150 g a.i./hm^2,85%
same,"Growth inhibition rate, Pre-emergence treatment, Setaria glauca (L.) Beauv.",[2]; dose 600 g a.i./hm^2,100%
same,"Growth inhibition rate, Post-emergence treatment, Abutilon theophrasti Medic.",[3]; dose 7.5 g a.i./hm^2,98%
same,"Growth inhibition rate, Post-emergence treatment, Abutilon theophrasti Medic.",[3]; dose 15 g a.i./hm^2,100%
same,"Growth inhibition rate, Post-emergence treatment, Abutilon theophrasti Medic.",[3]; dose 37.5 g a.i./hm^2,98%
same,"Growth inhibition rate, Post-emergence treatment, Abutilon theophrasti Medic.",[3]; dose 150 g a.i./hm^2,100%
same,"Growth inhibition rate, Post-emergence treatment, Abutilon theophrasti Medic.",[3]; dose 600 g a.i./hm^2,100%
same,"Growth inhibition rate, Pre-emergence treatment, Abutilon theophrasti Medic.",[3]; dose 7.5 g a.i./hm^2,98%
same,"Growth inhibition rate, Pre-emergence treatment, Abutilon theophrasti Medic.",[3]; dose 15 g a.i./hm^2,100%
same,"Growth inhibition rate, Pre-emergence treatment, Abutilon theophrasti Medic.",[3]; dose 37.5 g a.i./hm^2,85%
same,"Growth inhibition rate, Pre-emergence treatment, Abutilon theophrasti Medic.",[3]; dose 150 g a.i./hm^2,100%
same,"Growth inhibition rate, Pre-emergence treatment, Abutilon theophrasti Medic.",[3]; dose 600 g a.i./hm^2,100%
same,"Growth inhibition rate, Post-emergence treatment, Zinnia elegans Jacq.",Zinnia elegans Jacq.; dose 7.5 g a.i./hm^2,98%
same,"Growth inhibition rate, Post-emergence treatment, Zinnia elegans Jacq.",Zinnia elegans Jacq.; dose 15 g a.i./hm^2,100%
same,"Growth inhibition rate, Post-emergence treatment, Zinnia elegans Jacq.",Zinnia elegans Jacq.; dose 37.5 g a.i./hm^2,100%
same,"Growth inhibition rate, Post-emergence treatment, Zinnia elegans Jacq.",Zinnia elegans Jacq.; dose 150 g a.i./hm^2,100%
same,"Growth inhibition rate, Post-emergence treatment, Zinnia elegans Jacq.",Zinnia elegans Jacq.; dose 600 g a.i./hm^2,100%
same,"Growth inhibition rate, Pre-emergence treatment, Zinnia elegans Jacq.",Zinnia elegans Jacq.; dose 7.5 g a.i./hm^2,20%
same,"Growth inhibition rate, Pre-emergence treatment, Zinnia elegans Jacq.",Zinnia elegans Jacq.; dose 15 g a.i./hm^2,30%
same,"Growth inhibition rate, Pre-emergence treatment, Zinnia elegans Jacq.",Zinnia elegans Jacq.; dose 37.5 g a.i./hm^2,45%
same,"Growth inhibition rate, Pre-emergence treatment, Zinnia elegans Jacq.",Zinnia elegans Jacq.; dose 150 g a.i./hm^2,100%
same,"Growth inhibition rate, Pre-emergence treatment, Zinnia elegans Jacq.",Zinnia elegans Jacq.; dose 600 g a.i./hm^2,100%
same,pre-emergence and post-emergence herbicidal activity against broad-leaf weeds and grass weeds,[4],good
CC(C)OC(=O)C1(C)CC(c2cc(-n3c(=O)cc(C(F)(F)F)n(C)c3=O)c(F)cc2Cl)=NO1 (stereo not drawn) [Compound 10],"Growth inhibition rate, Post-emergence treatment, Echinochloa crus-galli (L.) Beauv.",[1]; dose 7.5 g a.i./hm^2,90%
same,"Growth inhibition rate, Post-emergence treatment, Echinochloa crus-galli (L.) Beauv.",[1]; dose 15 g a.i./hm^2,98%
same,"Growth inhibition rate, Post-emergence treatment, Echinochloa crus-galli (L.) Beauv.",[1]; dose 30.0 g a.i./hm^2,100%
same,"Growth inhibition rate, Post-emergence treatment, Echinochloa crus-galli (L.) Beauv.",[1]; dose 60.0 g a.i./hm^2,100%
same,"Growth inhibition rate, Post-emergence treatment, Echinochloa crus-galli (L.) Beauv.",[1]; dose 120.0 g a.i./hm^2,100%
same,"Growth inhibition rate, Post-emergence treatment, Setaria glauca (L.) Beauv.",[2]; dose 7.5 g a.i./hm^2,90%
same,"Growth inhibition rate, Post-emergence treatment, Setaria glauca (L.) Beauv.",[2]; dose 15 g a.i./hm^2,100%
same,"Growth inhibition rate, Post-emergence treatment, Setaria glauca (L.) Beauv.",[2]; dose 30.0 g a.i./hm^2,100%
same,"Growth inhibition rate, Post-emergence treatment, Setaria glauca (L.) Beauv.",[2]; dose 60.0 g a.i./hm^2,100%
same,"Growth inhibition rate, Post-emergence treatment, Setaria glauca (L.) Beauv.",[2]; dose 120.0 g a.i./hm^2,100%
same,"Growth inhibition rate, Post-emergence treatment, Abutilon theophrasti Medic.",[3]; dose 7.5 g a.i./hm^2,100%
same,"Growth inhibition rate, Post-emergence treatment, Abutilon theophrasti Medic.",[3]; dose 15 g a.i./hm^2,100%
same,"Growth inhibition rate, Post-emergence treatment, Abutilon theophrasti Medic.",[3]; dose 30.0 g a.i./hm^2,100%
same,"Growth inhibition rate, Post-emergence treatment, Abutilon theophrasti Medic.",[3]; dose 60.0 g a.i./hm^2,100%
same,"Growth inhibition rate, Post-emergence treatment, Abutilon theophrasti Medic.",[3]; dose 120.0 g a.i./hm^2,100%
same,"Growth inhibition rate, Post-emergence treatment, Zinnia elegans Jacq.",Zinnia elegans Jacq.; dose 7.5 g a.i./hm^2,100%
same,"Growth inhibition rate, Post-emergence treatment, Zinnia elegans Jacq.",Zinnia elegans Jacq.; dose 15 g a.i./hm^2,100%
same,"Growth inhibition rate, Post-emergence treatment, Zinnia elegans Jacq.",Zinnia elegans Jacq.; dose 30.0 g a.i./hm^2,100%
same,"Growth inhibition rate, Post-emergence treatment, Zinnia elegans Jacq.",Zinnia elegans Jacq.; dose 60.0 g a.i./hm^2,100%
same,"Growth inhibition rate, Post-emergence treatment, Zinnia elegans Jacq.",Zinnia elegans Jacq.; dose 120.0 g a.i./hm^2,100%
same,pre-emergence and post-emergence herbicidal activity against broad-leaf weeds and grass weeds,[4],good
Cn1c(C(F)(F)F)cc(=O)n(-c2cc(C3=NOC(C)(COC(=O)CCc4ccccc4)C3)c(Cl)cc2F)c1=O (stereo not drawn) [Compound 55],"Growth inhibition rate, Post-emergence treatment, Echinochloa crus-galli (L.) Beauv.",[1]; dose 37.5 g a.i./hm^2,20%
same,"Growth inhibition rate, Post-emergence treatment, Echinochloa crus-galli (L.) Beauv.",[1]; dose 150 g a.i./hm^2,35%
same,"Growth inhibition rate, Post-emergence treatment, Echinochloa crus-galli (L.) Beauv.",[1]; dose 600 g a.i./hm^2,45%
same,"Growth inhibition rate, Pre-emergence treatment, Echinochloa crus-galli (L.) Beauv.",[1]; dose 37.5 g a.i./hm^2,0%
same,"Growth inhibition rate, Pre-emergence treatment, Echinochloa crus-galli (L.) Beauv.",[1]; dose 150 g a.i./hm^2,20%
same,"Growth inhibition rate, Pre-emergence treatment, Echinochloa crus-galli (L.) Beauv.",[1]; dose 600 g a.i./hm^2,40%
same,"Growth inhibition rate, Post-emergence treatment, Setaria glauca (L.) Beauv.",[2]; dose 37.5 g a.i./hm^2,30%
same,"Growth inhibition rate, Post-emergence treatment, Setaria glauca (L.) Beauv.",[2]; dose 150 g a.i./hm^2,75%
same,"Growth inhibition rate, Post-emergence treatment, Setaria glauca (L.) Beauv.",[2]; dose 600 g a.i./hm^2,90%
same,"Growth inhibition rate, Pre-emergence treatment, Setaria glauca (L.) Beauv.",[2]; dose 37.5 g a.i./hm^2,0%
same,"Growth inhibition rate, Pre-emergence treatment, Setaria glauca (L.) Beauv.",[2]; dose 150 g a.i./hm^2,5%
same,"Growth inhibition rate, Pre-emergence treatment, Setaria glauca (L.) Beauv.",[2]; dose 600 g a.i./hm^2,80%
same,"Growth inhibition rate, Post-emergence treatment, Abutilon theophrasti Medic.",[3]; dose 37.5 g a.i./hm^2,100%
same,"Growth inhibition rate, Post-emergence treatment, Abutilon theophrasti Medic.",[3]; dose 150 g a.i./hm^2,100%
same,"Growth inhibition rate, Post-emergence treatment, Abutilon theophrasti Medic.",[3]; dose 600 g a.i./hm^2,100%
same,"Growth inhibition rate, Pre-emergence treatment, Abutilon theophrasti Medic.",[3]; dose 37.5 g a.i./hm^2,5%
same,"Growth inhibition rate, Pre-emergence treatment, Abutilon theophrasti Medic.",[3]; dose 150 g a.i./hm^2,20%
same,"Growth inhibition rate, Pre-emergence treatment, Abutilon theophrasti Medic.",[3]; dose 600 g a.i./hm^2,45%
same,"Growth inhibition rate, Post-emergence treatment, Zinnia elegans Jacq.",Zinnia elegans Jacq.; dose 37.5 g a.i./hm^2,100%
same,"Growth inhibition rate, Post-emergence treatment, Zinnia elegans Jacq.",Zinnia elegans Jacq.; dose 150 g a.i./hm^2,100%
same,"Growth inhibition rate, Post-emergence treatment, Zinnia elegans Jacq.",Zinnia elegans Jacq.; dose 600 g a.i./hm^2,100%
same,"Growth inhibition rate, Pre-emergence treatment, Zinnia elegans Jacq.",Zinnia elegans Jacq.; dose 37.5 g a.i./hm^2,0%
same,"Growth inhibition rate, Pre-emergence treatment, Zinnia elegans Jacq.",Zinnia elegans Jacq.; dose 150 g a.i./hm^2,5%
same,"Growth inhibition rate, Pre-emergence treatment, Zinnia elegans Jacq.",Zinnia elegans Jacq.; dose 600 g a.i./hm^2,80%
same,pre-emergence and post-emergence herbicidal activity against broad-leaf weeds and grass weeds,[4],good
